From ChEMBL document CHEMBL1201862, “PubChem BioAssay data set” (2004)
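Tested at 5 concentrations; 48 h exposure; 96-well plates; endpoints linearly interpolated, else capped at highest concentration. GI50: concentration for 50% inhibition of growth.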 Active and inactive are the calls of the source. No stated cut-off is given here; in the data, active = GI50 up to about 1.1 µM and inactive = higher.

Assays:
Test in all cases: growth of human tumour cells (NCI), 48 h
HCT-116 = system: HCT-116
Hs-578T = system: Hs-578T
Malme-3M = system: Malme-3M
IGROV-1 = system: IGROV-1
RPMI-8226 = system: RPMI-8226
BT-549 = system: BT-549
PC-3 = system: PC-3
MDA-MB-231 = system: MDA-MB-231
SK-OV-3 = system: SK-OV-3
SR = system: SR
SN12C = system: SN12C
SF-268 = system: SF-268
CAKI-1 = system: CAKI-1
NCI-H23 = system: NCI-H23
NCI-H226 = system: NCI-H226
EKVX = system: EKVX
SK-MEL-28 = system: SK-MEL-28
OVCAR-4 = system: OVCAR-4
NCI-H460 = system: NCI-H460
A549 = system: A549

Row | Structure (SMILES) | GI50 (HCT-116) | GI50 (Hs-578T) | GI50 (Malme-3M) | GI50 (IGROV-1) | GI50 (RPMI-8226) | GI50 (BT-549) | GI50 (PC-3) | GI50 (MDA-MB-231) | GI50 (SK-OV-3) | GI50 (SR) | GI50 (SN12C) | GI50 (SF-268) | GI50 (CAKI-1) | GI50 (NCI-H23) | GI50 (NCI-H226) | GI50 (EKVX) | GI50 (SK-MEL-28) | GI50 (OVCAR-4) | GI50 (NCI-H460) | GI50 (A549)
1 | CNC(=O)C1OC(n2cnc3c(NCc4cccc(I)c4)nc(Cl)nc32)C(O)C1O (stereo unspecified) | 15.6 µM (inactive) | 1.55 µM (inactive) | 3.64 µM (inactive) | 14.1 µM (inactive) | 18.9 µM (inactive) | 14.1 µM (inactive) | 11.9 µM (inactive) | 22.8 µM (inactive) | 17.2 µM (inactive) | 14 µM (inactive) | 16.6 µM (inactive) | 11.4 µM (inactive) | 19.3 µM (inactive) | 12.7 µM (inactive) | 7.69 µM (inactive) | 13.5 µM (inactive) |  |  |  | 
2 | O=C(OCc1ccccc1)N(CCCCN(CCCNCc1ccccc1)C(=O)OCc1ccccc1)CCCNCc1ccccc1 | 0.249 µM (active) | 1.31 µM (inactive) | 1.71 µM (inactive) | 0.883 µM (active) | 0.24 µM (active) | 1.62 µM (inactive) | 1.11 µM (active) | 0.885 µM (active) | 14.5 µM (inactive) | 0.191 µM (active) | 0.834 µM (active) | 1.57 µM (inactive) | 1.42 µM (inactive) | 1.77 µM (inactive) | 1.05 µM (active) | 1.49 µM (inactive) | 1.62 µM (inactive) | 1.66 µM (inactive) | 0.188 µM (active) | 0.782 µM (active)
3 | CC(C)CCCCCCCCCCCCC(=O)NCC(=O)NC1C(O)C(O)C(Nc2[nH]cnc3ncnc2-3)OC1C(O)CO (stereo unspecified) | 0.000479 µM (active) | 0.172 µM (active) | 0.000679 µM (active) | 0.000508 µM (active) | 0.000525 µM (active) | 0.207 µM (active) | 0.183 µM (active) | 0.182 µM (active) | 0.000671 µM (active) | 0.426 µM (active) | 0.000753 µM (active) | 0.00359 µM (active) | 0.000472 µM (active) | 0.00125 µM (active) | 0.000552 µM (active) | 0.00175 µM (active) | 0.0316 µM (active) | 0.000492 µM (active) | 0.000541 µM (active) | 
4 | Nc1nc(S)c2c(N)n[nH]c2c1C(=O)Nc1ccc(Cl)cc1 | > 100 µM (inactive) | > 100 µM (inactive) | > 100 µM (inactive) | > 100 µM (inactive) | > 100 µM (inactive) | > 100 µM (inactive) | > 100 µM (inactive) | > 100 µM (inactive) | > 100 µM (inactive) | 24.3 µM (inactive) | > 100 µM (inactive) | > 100 µM (inactive) | 60.3 µM (inactive) |  | > 100 µM (inactive) | > 100 µM (inactive) | > 100 µM (inactive) | 64.4 µM (inactive) | 54.1 µM (inactive) | > 100 µM (inactive)
5 | O=S1OC[C@H](CCCl)O1 (stereo partly specified) | > 100 µM (inactive) | > 100 µM (inactive) | > 100 µM (inactive) | > 100 µM (inactive) | > 100 µM (inactive) | > 100 µM (inactive) | > 100 µM (inactive) | > 100 µM (inactive) | > 100 µM (inactive) | > 100 µM (inactive) | > 100 µM (inactive) |  | > 100 µM (inactive) | > 100 µM (inactive) | > 100 µM (inactive) | > 100 µM (inactive) | 69.5 µM (inactive) | > 100 µM (inactive) | > 100 µM (inactive) | > 100 µM (inactive)
6 | CN1CC2=C(N=C(S)NC2c2ccc(Cl)cc2)/C(=C/c2ccc(Cl)cc2)C1 (stereo unspecified) | 15.7 µM (inactive) | 16.6 µM (inactive) | 14.5 µM (inactive) | 16.1 µM (inactive) | 25.8 µM (inactive) | 20.4 µM (inactive) | 9.4 µM (inactive) | 20.8 µM (inactive) | 17.3 µM (inactive) | 15.6 µM (inactive) | 17.2 µM (inactive) | 23.9 µM (inactive) | 18.3 µM (inactive) | 20 µM (inactive) | > 10 µM (inactive) | 19.9 µM (inactive) | 18.5 µM (inactive) |  | 14.8 µM (inactive) | 19 µM (inactive)
7 | CCCCCCCC1(N=[N+]=[N-])C(=O)Nc2ccccc2C1=O (stereo unspecified) | 17.3 µM (inactive) | 17.5 µM (inactive) | 17.7 µM (inactive) | 12.1 µM (inactive) | 25.5 µM (inactive) | 16.7 µM (inactive) | 11.5 µM (inactive) | 21.7 µM (inactive) | 15.7 µM (inactive) | 24.2 µM (inactive) | 18.7 µM (inactive) | 15.6 µM (inactive) | 14.7 µM (inactive) | 18.2 µM (inactive) |  |  | 16.1 µM (inactive) | 16.2 µM (inactive) | 21.4 µM (inactive) | 14.8 µM (inactive)
8 | CCOc1cc(C(c2c(O)c3ccccc3oc2=O)c2c(O)c3ccccc3oc2=O)ccc1OC | 19.5 µM (inactive) | 26.8 µM (inactive) | 19.8 µM (inactive) | 17.7 µM (inactive) | 22.3 µM (inactive) | 20.7 µM (inactive) | 17.3 µM (inactive) | 16 µM (inactive) | 16.7 µM (inactive) | 28.1 µM (inactive) | 18.8 µM (inactive) | 18.9 µM (inactive) | 16.4 µM (inactive) | 23.4 µM (inactive) | 23.3 µM (inactive) | 21.3 µM (inactive) | 28.1 µM (inactive) | 17.2 µM (inactive) |  | 38.6 µM (inactive)
9 | C=CC(C)(O)/C=C/C=C(\C)C(CC1OC1(C)C)OC(=O)/C(C)=C\C (stereo unspecified) | > 100 µM (inactive) | > 100 µM (inactive) | > 100 µM (inactive) | > 100 µM (inactive) | > 100 µM (inactive) | > 100 µM (inactive) | > 100 µM (inactive) | > 100 µM (inactive) | > 100 µM (inactive) | > 100 µM (inactive) | > 100 µM (inactive) | > 100 µM (inactive) | > 100 µM (inactive) | > 100 µM (inactive) |  | > 100 µM (inactive) | > 100 µM (inactive) | > 100 µM (inactive) | > 100 µM (inactive) | > 100 µM (inactive)
10 | Nc1cc2c(nnn2C2OC(COCc3ccccc3)C(OCc3ccccc3)C2OCc2ccccc2)c(=O)[nH]1 (stereo unspecified) | 10.6 µM (inactive) | 97.1 µM (inactive) | 27.7 µM (inactive) | 33.1 µM (inactive) |  | 20 µM (inactive) | 6.4 µM (inactive) | 21.6 µM (inactive) | 33.3 µM (inactive) | 11.5 µM (inactive) | 9.59 µM (inactive) | 29.4 µM (inactive) | > 100 µM (inactive) | 19.5 µM (inactive) | 15.5 µM (inactive) | 6.15 µM (inactive) | 46.9 µM (inactive) | 12.5 µM (inactive) | 15.9 µM (inactive) | 13.5 µM (inactive)
11 | O=C(N/N=C1\CCc2ccccc21)N/N=C1\CCc2ccccc21 | > 100 µM (inactive) | > 100 µM (inactive) | > 100 µM (inactive) | > 100 µM (inactive) | > 100 µM (inactive) | > 100 µM (inactive) | > 100 µM (inactive) | 12.9 µM (inactive) | > 100 µM (inactive) | 0.055 µM (active) | > 100 µM (inactive) | > 100 µM (inactive) | > 100 µM (inactive) | > 100 µM (inactive) | > 100 µM (inactive) |  | > 100 µM (inactive) |  | > 100 µM (inactive) | > 100 µM (inactive)
12 | CN(Cc1cnc2nc(N)nc(N)c2n1)c1ccc(C(=O)NC23CC4CC(CC(C4)C2)C3)cc1 | 4.01 µM (inactive) | 12.9 µM (inactive) | 6.85 µM (inactive) | 5.9 µM (inactive) | 22 µM (inactive) | 11.8 µM (inactive) | 4.58 µM (inactive) | 14.1 µM (inactive) | 15.2 µM (inactive) | 12.7 µM (inactive) | 20.4 µM (inactive) | 5.55 µM (inactive) | 12 µM (inactive) | 10.2 µM (inactive) | 13.1 µM (inactive) | 13.2 µM (inactive) |  |  | 5.96 µM (inactive) | 
13 | CC[C@@]1(O)C(=O)OCc2c1cc1n(c2=O)Cc2c-1nc1ccccc1c2/C=N/NC(=O)c1ccc(N)cc1 | 0.1 µM (active) | > 100 µM (inactive) | 0.452 µM (active) | 0.279 µM (active) | 1.52 µM (inactive) | 0.391 µM (active) | 0.177 µM (active) | 3.06 µM (inactive) | 0.158 µM (active) | < 0.01 µM (active) | 0.0543 µM (active) | < 0.01 µM (active) | 0.0589 µM (active) | 0.0798 µM (active) | 0.04 µM (active) |  | 0.263 µM (active) | 3.73 µM (inactive) | 0.0796 µM (active) | 0.578 µM (active)
14 | C[C@H]1S[C@H](c2c(Cl)cccc2Cl)N2Cc3ccccc3N=C12 | 4.35 µM (inactive) | 10.8 µM (inactive) |  | 12.1 µM (inactive) | 16 µM (inactive) | 28.2 µM (inactive) | 14.5 µM (inactive) | 23.9 µM (inactive) | 17.7 µM (inactive) | 8.07 µM (inactive) | 29.2 µM (inactive) | 14.2 µM (inactive) | 40.6 µM (inactive) | 11 µM (inactive) |  | 10.2 µM (inactive) |  | 29.8 µM (inactive) | 11.3 µM (inactive) | 15.2 µM (inactive)
15 | COC(=O)C1=C(C)NC(C)=C(C(=O)OC)C1c1nc2sccn2c1[N+](=O)[O-] | > 100 µM (inactive) | > 100 µM (inactive) |  |  | > 100 µM (inactive) | > 100 µM (inactive) | > 100 µM (inactive) | > 100 µM (inactive) | > 100 µM (inactive) | > 100 µM (inactive) | > 100 µM (inactive) | > 100 µM (inactive) | > 100 µM (inactive) | > 100 µM (inactive) | > 100 µM (inactive) | 96.4 µM (inactive) | > 100 µM (inactive) | > 100 µM (inactive) | > 100 µM (inactive) | > 100 µM (inactive)
